Source: PubChem BioAssay AID1259407 (Chemical Carcinogenesis Research Information System (CCRIS), 2018)
Active and inactive are the calls of the source. How the calls were made is not given here.

Test system: CCRIS mutagenicity, Ames/micronucleus/aberration tests
Assay: CCRIS mutagenicity studies
[1] = Test System: AMES SALMONELLA TYPHIMURIUM, Strain/Indicator: TA100, Metabolic Activation: NONE, Method: PREINCUBATION
[2] = Test System: AMES SALMONELLA TYPHIMURIUM, Strain/Indicator: TA100, Metabolic Activation: RAT, LIVER, S-9, PCB, Method: PREINCUBATION
[3] = Test System: AMES SALMONELLA TYPHIMURIUM, Strain/Indicator: TA98, Metabolic Activation: NONE, Method: STANDARD PLATE
[4] = Test System: AMES SALMONELLA TYPHIMURIUM, Strain/Indicator: TA98, Metabolic Activation: RAT, LIVER, S-9, AROCLOR 1254, Method: STANDARD PLATE
[5] = Test System: AMES SALMONELLA TYPHIMURIUM, Strain/Indicator: TA100, Metabolic Activation: NONE, Method: STANDARD PLATE
[6] = Test System: AMES SALMONELLA TYPHIMURIUM, Strain/Indicator: TA100, Metabolic Activation: RAT, LIVER, S-9, AROCLOR 1254, Method: STANDARD PLATE
[7] = Test System: AMES SALMONELLA TYPHIMURIUM, Strain/Indicator: TA1537, Metabolic Activation: NONE, Method: STANDARD PLATE
[8] = Test System: AMES SALMONELLA TYPHIMURIUM, Strain/Indicator: TA1537, Metabolic Activation: RAT, LIVER, S-9, AROCLOR 1254, Method: STANDARD PLATE
[9] = Test System: CHINESE HAMSTER OVARY, Strain/Indicator: CHO-K1-BH4 (HGPRT), Metabolic Activation: NONE, Method: SUSPENSION

With COc1cccc2c1C(=O)c1c(O)c3c(c(O)c1C2=O)CC(O)(C(C)=O)CC3O[C@H]1C[C@H](N2CCOCC2)[C@@H](O)C(C)O1 (some centres undefined) the mutagenic call (Test System: CHINESE HAMSTER V-79, Strain/Indicator: V-79/8-AZAGUANINE, Metabolic Activation: NONE) was “active; positive”, the mutagenic call (Test System: CHINESE HAMSTER V-79, Strain/Indicator: V-79/8-AZAGUANINE, Metabolic Activation: RAT, HEPATOCYTES) was “inactive; negative” and the mutagenic call (Test System: UDS RAT HEPATOCYTES, Strain/Indicator: THY INCORP, Metabolic Activation: NONE, Method: AUTOMATIC COLONY COUNTER) was “active; positive”.

COC(=O)c1c2c(c3ccccc3c1O)OC(C)(C)C=C2 was tested, and the mutagenic call [1] was “active; positive” and the mutagenic call [2] was “active; positive”.

For C[C@]12CC[C@H](OC(=O)/C=C/c3cccc(N(CCCl)CCCl)c3)C[C@@H]1CC[C@@H]1[C@@H]2CC[C@]2(C)NC(=O)CC[C@@H]12, the mutagenic call [3] was “inactive; negative”, the mutagenic call [4] was “inactive; negative” and the mutagenic call [5] was “inactive; negative”. The mutagenic call [6] was “inactive; negative”, the mutagenic call (Test System: AMES SALMONELLA TYPHIMURIUM, Strain/Indicator: TA1535, Metabolic Activation: NONE, Method: STANDARD PLATE) was “inactive; negative” and the mutagenic call (Test System: AMES SALMONELLA TYPHIMURIUM, Strain/Indicator: TA1535, Metabolic Activation: RAT, LIVER, S-9, AROCLOR 1254, Method: STANDARD PLATE) was “inactive; negative”. For the same molecule, the mutagenic call [7] was “inactive; negative” and the mutagenic call [8] was “inactive; negative”.

With OCc1ccc2c(c1)-c1cccc3cccc-2c13 the mutagenic call [3] was “inactive; negative” and the mutagenic call [5] was “active; positive”.

In the case of COc1ccc2c(c1)[C@@H]1CCCC[C@H]1C=C2, the mutagenic call (Test System: AMES SALMONELLA TYPHIMURIUM, Strain/Indicator: TA98, Metabolic Activation: RAT, LIVER, S-9, SODIUM PHENOBARBITAL AND BETA-NAPHTHOFLAVONE, Method: STANDARD PLATE) is reported as “active; positive” and the mutagenic call (Test System: AMES SALMONELLA TYPHIMURIUM, Strain/Indicator: TA100, Metabolic Activation: RAT, LIVER, S-9, SODIUM PHEOBARBITAL AND BETA-NAPHTHOFLAVONE, Method: STANDARD PLATE) is reported as “active; positive”.

With CCCCN(CCO)N=O the mutagenic call (Test System: AMES SALMONELLA TYPHIMURIUM, Strain/Indicator: TA1535, Metabolic Activation: RAT, LIVER, S-9, KC500 OR PHENOBARBITAL, Method: LIQUID SUSPENSION) was “active; positive”.

For Fc1ccc2cccnc2c1F, the mutagenic call (Test System: AMES SALMONELLA TYPHIMURIUM, Strain/Indicator: TA100, Metabolic Activation: RAT LIVER S-9, PHENOBARBITAL AND 5,6-BENZOFLAVONE, Method: PREINCUBATION) was “active; positive”.

For Cc1ccc(S(=O)(=O)OC[C@@H]2CO2)cc1, the mutagenic call [1] was “active; positive”, the mutagenic call [5] was “active; positive” and the mutagenic call [2] was “active; positive”.

O=Nc1ccc2ccc3cccc4ccc1c2c34 was tested, and the mutagenic call (Test System: AMES SALMONELLA TYPHIMURIUM, Strain/Indicator: TA98 (1,8-DNP6), Metabolic Activation: NONE, Method: STANDARD PLATE) was “active; positive”, the mutagenic call (Test System: AMES SALMONELLA TYPHIMURIUM, Strain/Indicator: TA98(1,8-DNP6), Metabolic Activation: NONE, Method: STANDARD PLATE) was “active; positive” and the mutagenic call (Test System: AMES SALMONELLA TYPHIMURIUM, Strain/Indicator: TA98 (NR), Metabolic Activation: NONE, Method: STANDARD PLATE) was “active; positive”. The mutagenic call (Test System: AMES SALMONELLA TYPHIMURIUM, Strain/Indicator: TA98(NR), Metabolic Activation: NONE, Method: STANDARD PLATE) was “active; positive”, the mutagenic call [3] was “active; positive” and the mutagenic call (Test System: CHINESE HAMSTER OVARY, Strain/Indicator: CHO (HGPRT), Metabolic Activation: NONE, Method: SUSPENSION) was “active; positive”. For the same molecule, the mutagenic call [9] was “active; positive” and the mutagenic call (Test System: CHINESE HAMSTER OVARY, Strain/Indicator: CHO/HGPRT, Metabolic Activation: NONE) was “active; positive”.

In the case of O=C=Nc1cccc2c(N=C=O)cccc12, the mutagenic call (Test System: AMES SALMONELLA TYPHIMURIUM, Strain/Indicator: TA98, Metabolic Activation: NONE, Method: PREINCUBATION) is reported as “inactive; negative”, the mutagenic call (Test System: AMES SALMONELLA TYPHIMURIUM, Strain/Indicator: TA98, Metabolic Activation: RAT LIVER S-9, PHENOBARBITAL AND BETA-NAPHTHOFLAVONE, Method: PREINCUBATION) is reported as “inactive; negative” and the mutagenic call [1] is reported as “inactive; negative”. The mutagenic call (Test System: AMES SALMONELLA TYPHIMURIUM, Strain/Indicator: TA100, Metabolic Activation: RAT LIVER S-9, PHENOBARBITAL AND BETA-NAPHTHOFLAVONE, Method: PREINCUBATION) was “inactive; negative”, the mutagenic call (Test System: AMES SALMONELLA TYPHIMURIUM, Strain/Indicator: TA1535, Metabolic Activation: NONE, Method: PREINCUBATION) was “inactive; negative” and the mutagenic call (Test System: AMES SALMONELLA TYPHIMURIUM, Strain/Indicator: TA1535, Metabolic Activation: RAT LIVER S-9, PHENOBARBITAL AND BETA-NAPHTHOFLAVONE, Method: PREINCUBATION) was “inactive; negative”. For the same molecule, the mutagenic call (Test System: AMES SALMONELLA TYPHIMURIUM, Strain/Indicator: TA1537, Metabolic Activation: NONE, Method: PREINCUBATION) was “inactive; negative”, the mutagenic call (Test System: AMES SALMONELLA TYPHIMURIUM, Strain/Indicator: TA1537, Metabolic Activation: RAT LIVER S-9, PHENOBARBITAL AND BETA-NAPHTHOFLAVONE, Method: PREINCUBATION) was “inactive; negative” and the mutagenic call (Test System: AMES SALMONELLA TYPHIMURIUM, Strain/Indicator: TA1538, Metabolic Activation: NONE, Method: PREINCUBATION) was “inactive; negative”. The mutagenic call (Test System: AMES SALMONELLA TYPHIMURIUM, Strain/Indicator: TA1538, Metabolic Activation: RAT LIVER S-9, PHENOBARBITAL AND BETA-NAPHTHOFLAVONE, Method: PREINCUBATION) was “inactive; negative”, the mutagenic call (Test System: E.COLI, Strain/Indicator: WP2UVRA, Metabolic Activation: NONE, Method: PREINCUBATION) was “inactive; negative” and the mutagenic call (Test System: E.COLI, Strain/Indicator: WP2UVRA, Metabolic Activation: RAT LIVER S-9, PHENOBARBITAL AND BETA-NAPHTHOFLAVONE, Method: PREINCUBATION) was “inactive; negative”.

ONc1ccc2c(c1)Cc1ccccc1-2 was tested, and the mutagenic call [3] was “active; positive”, the mutagenic call [4] was “active; positive” and the mutagenic call (Test System: AMES SALMONELLA TYPHIMURIUM, Strain/Indicator: TA98, Metabolic Activation: S-9, Method: STANDARD PLATE) was “active; positive”. For the same molecule, the mutagenic call [5] was “active; positive”, the mutagenic call (Test System: AMES SALMONELLA TYPHIMURIUM, Strain/Indicator: TA100, Metabolic Activation: S-9, Method: STANDARD PLATE) was “active; positive” and the mutagenic call (Test System: AMES SALMONELLA TYPHIMURIUM, Strain/Indicator: TA1538, Metabolic Activation: NONE, Method: STANDARD PLATE) was “active; positive”. For the same molecule, the mutagenic call (Test System: AMES SALMONELLA TYPHIMURIUM, Strain/Indicator: YG1020, Metabolic Activation: NONE, Method: PREINCUBATION) was “active; positive”, the mutagenic call (Test System: AMES SALMONELLA TYPHIMURIUM, Strain/Indicator: YG1024, Metabolic Activation: NONE, Method: PREINCUBATION) was “active; positive” and the mutagenic call (Test System: AMES SALMONELLA TYPHIMURIUM, Strain/Indicator: YG1025, Metabolic Activation: NONE, Method: PREINCUBATION) was “active; positive”. The mutagenic call (Test System: AMES SALMONELLA TYPHIMURIUM, Strain/Indicator: YG1029, Metabolic Activation: NONE, Method: PREINCUBATION) was “active; positive”, the mutagenic call [9] was “active; positive” and the mutagenic call (Test System: E. COLI, Strain/Indicator: WP2, Metabolic Activation: NONE, Method: PREINCUBATION) was “active; positive”. For the same molecule, the mutagenic call (Test System: E. COLI, Strain/Indicator: WP2 UVRA, Metabolic Activation: NONE, Method: PREINCUBATION) was “active; positive”.

With O=c1[nH]c(=O)n([C@H]2C[C@H](O)[C@@H](CO)O2)cc1CO the mutagenic call [3] was “inactive; negative”, the mutagenic call [4] was “inactive; negative” and the mutagenic call [5] was “active; positive”. For the same molecule, the mutagenic call [6] was “active; positive”, the mutagenic call (Test System: AMES SALMONELLA TYPHIMURIUM, Strain/Indicator: TA102, Metabolic Activation: NONE, Method: STANDARD PLATE) was “active; positive” and the mutagenic call [7] was “inactive; negative”. The mutagenic call [8] was “inactive; negative”, the mutagenic call (Test System: CHINESE HAMSTER V-79, Strain/Indicator: V-79/6-THIOGUANINE, Metabolic Activation: NONE) was “active; positive” and the mutagenic call (Test System: CHINESE HAMSTER V-79, Strain/Indicator: V-79/OUABAIN, Metabolic Activation: NONE) was “inactive; negative”.
